# Measurements published in patent publication US20060067991A1 (priority 2004, published 2006).
# Legend:
# [1] = test system: enzymes produced by S. aureus MN8; experiment: Breakdown of test compounds by enzymes produced by S. aureus MN8, GC/MS of culture fluid; format: in vitro ADME; settings: concentrations of b130; for course of the concentration of the dominant compound over time: GC/MS at 3, 6, 9 and 24 hours; for dominant compound found in the culture fluid: GC/MS, undiluted solutions at 3, 6, 9 and 24 hours
# Description: (§1) The test compounds, in the desired concentrations, were placed in 100 mL of a growth medium in a sterile, 500 mL Corning Fleaker (Fisher Scientific, Pittsbury, Pa.). The growth medium and inoculum were prepared as in Example 1.
# (§2) The test compounds were added to the growth medium in the amount necessary to obtain the desired final concentration.
# (§3) Each fleaker was inoculated with the amount of inoculum determined as described above. The fleakers were capped with sterile aluminum foil and incubated at 35° C. in atmospheric air in a Lab-Line orbital water bath (available from VWR Scientific Products, McGaw Park, Ill.) at 180 rpm. Fifteen milliliter samples were removed at 3, 6, 9, and 24 hours. The optical density (595 nm) of the culture fluid was determined and the culture fluid collected at 24 hours was assayed for the number of colony forming units of S. aureus MN8 using standard plate count procedures.
# In preparation for analysis of the integrity of the test compounds, the culture fluid was centrifuged at 3000 rpm at 2-10° C. for 15 minutes. The supernatant was filter sterilized through an AUTOVIAL 5 syringeless filter, […] pore size (available from Whatman, Inc., Clifton, N.J.). The resulting fluid was frozen at −70° C. in a FISHERBRAND (12 mm×75 mm) polystyrene culture tube (Fisher Scientific, Pittsburgh, Pa.) until chemical analysis could be performed.
# Using an Agilent Technologies 5973N GC/MS, analysis was performed on undiluted solutions at 3, 6, 9, and 24 hours to evaluate the ability of S. aureus MN8 to breakdown the test compounds. Based on the analysis, the control sample, which had no test compounds added, comprised mostly acetic acid at all time intervals.
# [2] = test system: enzymes produced by S. aureus MN8; experiment: Breakdown of test compounds by S. aureus MN8, liquid chromatography of culture fluid; format: in vitro ADME; settings: 6 hour and 24 hour samples, UV 230 nm
# Description: as §1, §2, §3
# In preparation for analysis of the integrity of the test compounds, the culture fluid was centrifuged at 3000 rpm at 2-10° C. for 15 minutes. […]
# Additional analysis of the 6 hour and 24 hour samples was conducted by liquid chromatography. […] The dilutions were then analyzed using an ion exclusion column to achieve the separation. Detection of the compounds was accomplished through UV absorbance at 230 nm.
SMILES,course of the concentration of the dominant compound over time [1],dominant compound found in the culture fluid [1],breakdown to the active species [2]
"CC(C)CC(NC(=O)c1ccccc1)C(=O)O (racemic) [N-benzoyl-DL-leucine, N-Benzoyl-DL-Leucine]",decreasing concentration over time,benzoic acid,breakdown to benzoic acid
"OCc1ccccc1 [Benzyl alcohol, benzyl alcohol]",decreased over time,benzyl alcohol,
O=C(O)c1ccccc1 [benzoic acid],decreased over time,benzoic acid,
